Test results from ChEMBL document CHEMBL1697731, “Cheminformatics analysis of assertions mined from literature that describe drug-induced liver injury in different species” (Chem Res Toxicol, 2010).

Assays:
Hepatotoxicity [1] = experiment: Literature-mined compound from Fourches et al multi-species drug-induced liver injury (DILI) dataset, effect in non-rodents
Hepatotoxicity [2] = experiment: Literature-mined compound from Fourches et al multi-species drug-induced liver injury (DILI) dataset, effect in humans; conditions: human
Hepatotoxicity [3] = experiment: Literature-mined compound from Fourches et al multi-species drug-induced liver injury (DILI) dataset, effect in rodents; conditions: rodentia

Molecule | Hepatotoxicity (Hepatotoxicity [1]) | Hepatotoxicity (Hepatotoxicity [2]) | Hepatotoxicity (Hepatotoxicity [3]) | Hepatotoxicity (Hepatotoxicity [1]; Liver) | Hepatotoxicity (Hepatotoxicity [2]; Liver) | Hepatotoxicity (Hepatotoxicity [3]; Liver)
CNC(=C[N+](=O)[O-])NCCSCc1ccc(CN(C)C)o1 [RANITIDINE] | drug-induced liver injury reported | drug-induced liver injury reported | drug-induced liver injury reported | – | – | –
NC(=O)OCC(COC(N)=O)c1ccccc1 [FELBAMATE] | no drug-induced liver injury reported | drug-induced liver injury reported | drug-induced liver injury reported | – | – | –
CHOLESTYRAMINE | no drug-induced liver injury reported | drug-induced liver injury reported | drug-induced liver injury reported | – | – | –
COc1ccc(C(=O)c2ccccc2)c(O)c1 [OXYBENZONE] | no drug-induced liver injury reported | no drug-induced liver injury reported | drug-induced liver injury reported | – | – | –
C[Se]CC[C@H](N)C(=O)O [SELENOMETHIONINE] | drug-induced liver injury reported | no drug-induced liver injury reported | drug-induced liver injury reported | – | – | –
CC(C)Cc1ccc(C(C)C(=O)O)cc1 (centres undefined) [IBUPROFEN] | no drug-induced liver injury reported | drug-induced liver injury reported | drug-induced liver injury reported | – | – | –
CCC(C)n1ncn(-c2ccc(N3CCN(c4ccc(OCC5COC(Cn6cncn6)(c6ccc(Cl)cc6Cl)O5)cc4)CC3)cc2)c1=O (centres undefined) [ITRACONAZOLE] | no drug-induced liver injury reported | drug-induced liver injury reported | drug-induced liver injury reported | – | – | –
CC(C)OC(=O)C(C(=O)OC(C)C)=C1SC=CS1 [MALOTILATE] | no drug-induced liver injury reported | drug-induced liver injury reported | drug-induced liver injury reported | – | – | –
Cn1c(=O)c2[nH]cnc2n(C)c1=O.O [THEOPHYLLINE] | drug-induced liver injury reported | drug-induced liver injury reported | drug-induced liver injury reported | – | – | –
POLYMYXIN B | no drug-induced liver injury reported | drug-induced liver injury reported | drug-induced liver injury reported | – | – | –
N[C@@H](CCC(=O)O)C(=O)O [GLUTAMIC ACID] | no drug-induced liver injury reported | no drug-induced liver injury reported | drug-induced liver injury reported | – | – | –
Cc1ccc(S(=O)(=O)[N-]Cl)cc1.[Na+] [CHLORAMINE-T ANHYDROUS] | drug-induced liver injury reported | no drug-induced liver injury reported | drug-induced liver injury reported | – | – | –
CN1CCc2cccc3c2[C@H]1Cc1ccc(O)c(O)c1-3 [APOMORPHINE] | no drug-induced liver injury reported | no drug-induced liver injury reported | drug-induced liver injury reported | – | – | –
C=CCOc1ccccc1OCC(O)CNC(C)C (centres undefined) [OXPRENOLOL] | – | – | – | drug-induced liver injury reported | no drug-induced liver injury reported | no drug-induced liver injury reported
CC(=O)OCC(CCn1cnc2cnc(N)nc21)COC(C)=O [FAMCICLOVIR] | no drug-induced liver injury reported | drug-induced liver injury reported | no drug-induced liver injury reported | – | – | –
CN1CC[C@]23c4c5ccc(O)c4O[C@H]2C(=O)CC[C@@]3(O)[C@H]1C5 [OXYMORPHONE] | no drug-induced liver injury reported | drug-induced liver injury reported | no drug-induced liver injury reported | – | – | –
COCCOC(=O)C1=C(C)NC(C)=C(C(=O)OC(C)C)C1c1cccc([N+](=O)[O-])c1 (centres undefined) [NIMODIPINE] | no drug-induced liver injury reported | drug-induced liver injury reported | drug-induced liver injury reported | – | – | –
NCC[C@H](O)C(=O)N[C@@H]1C[C@H](N)[C@@H](O[C@H]2O[C@H](CN)[C@@H](O)[C@H](O)[C@H]2O)[C@H](O)[C@H]1O[C@H]1O[C@H](CO)[C@@H](O)[C@H](N)[C@H]1O [AMIKACIN] | drug-induced liver injury reported | drug-induced liver injury reported | no drug-induced liver injury reported | – | – | –
C=CCC1(CC=C)C(=O)NC(=O)NC1=O [ALLOBARBITAL] | no drug-induced liver injury reported | no drug-induced liver injury reported | drug-induced liver injury reported | – | – | –

Molecule | Hepatotoxicity (Hepatotoxicity [1]) | Hepatotoxicity (Hepatotoxicity [2]) | Hepatotoxicity (Hepatotoxicity [3]) | Hepatotoxicity (Hepatotoxicity [1]; Liver) | Hepatotoxicity (Hepatotoxicity [2]; Liver) | Hepatotoxicity (Hepatotoxicity [3]; Liver)
COc1cc(NS(C)(=O)=O)ccc1Nc1c2ccccc2nc2ccccc12 [AMSACRINE] | no drug-induced liver injury reported | drug-induced liver injury reported | no drug-induced liver injury reported | – | – | –
CCOC(=O)[C@H](CCc1ccccc1)N[C@@H](C)C(=O)N1C(=O)N(C)C[C@H]1C(=O)O | no drug-induced liver injury reported | no drug-induced liver injury reported | drug-induced liver injury reported | – | – | –
COc1ccc([C@@H]2CC(=O)c3c(O)cc(O[C@@H]4O[C@H](CO[C@@H]5O[C@@H](C)[C@H](O)[C@@H](O)[C@H]5O)[C@@H](O)[C@H](O)[C@H]4O)cc3O2)cc1O [HESPERIDIN] | no drug-induced liver injury reported | drug-induced liver injury reported | drug-induced liver injury reported | – | – | –
O=C1CCC(N2C(=O)c3ccccc3C2=O)C(=O)N1 (centres undefined) [THALIDOMIDE] | no drug-induced liver injury reported | drug-induced liver injury reported | drug-induced liver injury reported | – | – | –
O=C(c1ccc(F)cc1)C1CCN(CCn2c(=O)[nH]c3ccccc3c2=O)CC1 [KETANSERIN] | no drug-induced liver injury reported | drug-induced liver injury reported | drug-induced liver injury reported | – | – | –
CN[C@@H](C)Cc1ccccc1 [METHAMPHETAMINE] | no drug-induced liver injury reported | drug-induced liver injury reported | drug-induced liver injury reported | – | – | –
CN(CCOc1ccc(CC2SC(=O)NC2=O)cc1)c1ccccn1 (centres undefined) [ROSIGLITAZONE] | no drug-induced liver injury reported | drug-induced liver injury reported | drug-induced liver injury reported | – | – | –
CC(C)c1cccc(C(C)C)c1O [PROPOFOL] | – | – | – | drug-induced liver injury reported | drug-induced liver injury reported | drug-induced liver injury reported
CCCCc1nc(Cl)c(CO)n1Cc1ccc(-c2ccccc2-c2nn[nH]n2)cc1 [LOSARTAN] | no drug-induced liver injury reported | drug-induced liver injury reported | drug-induced liver injury reported | – | – | –
COC(F)(F)C(Cl)Cl [METHOXYFLURANE] | no drug-induced liver injury reported | drug-induced liver injury reported | drug-induced liver injury reported | – | – | –
CC(=O)O [ACETIC ACID] | – | – | – | drug-induced liver injury reported | drug-induced liver injury reported | drug-induced liver injury reported
CC1(C)S[C@@H]2[C@H](NC(=O)[C@H](N)c3ccccc3)C(=O)N2[C@H]1C(=O)O [AMPICILLIN] | no drug-induced liver injury reported | drug-induced liver injury reported | drug-induced liver injury reported | – | – | –
CC1=C(/C=C/C(C)=C/C=C/C(C)=C/C=C/C=C(C)/C=C/C=C(C)/C=C/C2=C(C)C(=O)[C@@H](O)CC2(C)C)C(C)(C)C[C@H](O)C1=O [ASTAXANTHIN] | no drug-induced liver injury reported | no drug-induced liver injury reported | drug-induced liver injury reported | – | – | –
CC(C)Nc1ncccn1.O=P(O)(O)O [ISAXONINE PHOSPHATE] | no drug-induced liver injury reported | drug-induced liver injury reported | no drug-induced liver injury reported | – | – | –
CC(COc1ccccc1)N(CCCl)Cc1ccccc1 (centres undefined) [PHENOXYBENZAMINE] | no drug-induced liver injury reported | no drug-induced liver injury reported | drug-induced liver injury reported | – | – | –
NC(=O)c1ncn([C@@H]2O[C@H](CO)[C@@H](O)[C@H]2O)c1N [ACADESINE] | no drug-induced liver injury reported | no drug-induced liver injury reported | drug-induced liver injury reported | – | – | –
CSC[C@H]1C(=O)SC[C@@H](NC(=O)c2nc3ccccc3cc2O)C(=O)NCC(=O)N(C)[C@H]2SSC[C@@H](C(=O)N1C)N(C)C(=O)CNC(=O)[C@H](NC(=O)c1nc3ccccc3cc1O)CSC(=O)[C@H](CSC)N(C)C2=O [THIOCORALINE] | no drug-induced liver injury reported | drug-induced liver injury reported | no drug-induced liver injury reported | – | – | –
OC[C@H]1O[C@@](CO)(O[C@H]2O[C@H](CO)[C@@H](O)[C@H](O)[C@H]2O)[C@@H](O)[C@@H]1O [SUCROSE] | drug-induced liver injury reported | no drug-induced liver injury reported | drug-induced liver injury reported | – | – | –
N[C@@H](Cc1cc(I)c(Oc2cc(I)c(O)c(I)c2)c(I)c1)C(=O)O [LEVOTHYROXINE] | drug-induced liver injury reported | drug-induced liver injury reported | drug-induced liver injury reported | – | – | –
